Data set [1] deals with neutrophylic granulocytes and limphocytes. The following applies: mouse, in vivo, po.
Data set [2] deals with P-388 mouse lymphoma cells. The data set is described as follows: In vitro antitumor effect, P-388. The data set is classed as cell-based. The following applies: 400 μg/ml.
Another data set has as its system NK-ly-ascites lymphoma. The data set is described as follows: NK-ly-ascites lymphoma in vivo. Further details: species or system CFLP male mice. The settings on record: for Activity against NK-ly-ascites tumor: concentration below one-tenth of the LD50 value; for Survival rate and lifetime: dose-dependant; for Cytotoxical dose range: mouse, in vivo.
The test system of the next data set is human lymphocytes. The data set is described as follows: Immunological tests (overall; NK and K cell activity). The data set is classed as cell-based. The procedure: Lymphocytes were separated on Ficoll-Uromiro (Boyum 1968) gradient from the venal blood of healthy donors and patients suffering from malignant lymphoma and metastatizing solid tumours, respectively. When selecting the patients belonging to the latter group, the decreased ADCC and NK activity was taken into consideration. The phagocytes were removed by treatment with iron powder and a magnet.
ADCC was determined according to the method of Perlmann and Perlmann (1970) with minor modifications (Lang et al, 1981). Chicken erythrocytes labelled with 10^5 51 Cr and coated with anti-chicken erythrocyte rabbit-serum were incubated with the lymphocytes for 4 hours at 37° C. The reaction having been stopped the activity of the supernatant of the centrifuged cells was determined in a gamma-counter. The rate of chrome-release was expressed as the cytotoxicity index (CI %). This value was calculated as described in one of our earlier publications (Lang et al., 1980)--(see Table I).
NK activity was determined by the method of Jondal and Pross (1975) by using minor modifications (Lang et al, 1981). K-562 tumor cells labelled by ^51 Cr were incubated with effector cells in a TC 199 liquid nutrient medium comprising 10% of decomplemented calf serum. The reaction having been stopped the radioactivity of the superntant of the centrifuged cells (chrome release) was counted in a gamma-counter. The killing of the tumor cells (cytotoxicity index %) was expressed as the difference of the test release and spontaneous release.
Statistical calculations were carried out by means of a mono-sample test. […] The said effect may be so strong that cytotoxic activity decreased to one-tenth of the original value may be restored to the oroginal level (Table II).

Data set [3] concerns human polymorphonuclear leucocytes. The data set is described as follows: Direct /random/ migration of human polymorphonuclear leucocytes on agarose microdrops. The settings on record: for Effect on migration at a higher dose: 10 μg/ml; for Direct (random) migration of polymorphonuclear cells / Optimal dose for increase of migration: healthy donors. Type of data set: cell-based. The procedure:
Spontaneous (random) migration of leukocytes was measured on agarose microdrops according to the method of McCoy et al (1977) by carrying out some minor modifications (Kalmar and Gergely, 1982).
[…] agarose drops (0.2%) were placed on migration plates (Greiner, German Federal Republic). TC 199 liquid nutrient medium was added and the plates were air-tightly closed. After 24 hours the migration area were measured under a stereomicroscope. The migration area were expressed in mm^2.

For data set [4], the system named is human bone metastasis of mammal tumors, ovary tumors and pancreas tumors. The data set is described as follows: Human tumors, oral treatment for 6-12 months. Type of data set: in vivo. The settings on record: oral daily dose 30-120 mg (0.5-2 mg/kg).
The subject of the next data set is tumor cells. The data set is described as follows: Testing of antitumor effect (overall).
The subject of the next data set is NK-yl ascites tumor. The data set is described as follows: Combinations with known cytostatic agents in NK-ly ascites tumor. Type of data set: in vivo, CFLP mice. The settings on record: with cyclophosphamide, carnomustine, degranol, dibromo dulcitol or dibromo mannitol.
The test system of data set [5] is hemodinamical parameters and respiration function of cats.
Data set [6] concerns neutrophilic granulocytes, lymphocytes and macrophages. The data set is described as follows: Preliminary rapid test: immunostimulant effect. The following applies: oral, one-tenth of LD50; 24 hours. Also noted: key: 0: if there is no difference in the number and activity of the said cells, no increase can be declared over the control; medium: Medium effect is observed if the increase of cell number or activity over the control amounts to 20%; The effect is strong if the increase of the cell number and activity of the immune system is more than 20% higher than the control. The data set is classed as in vivo, CFLP male mice.

The test system of the next data set is ticks (Ixodes ricinus). The data set is described as follows: Anti-parasital effect in dogs infected by ticks. The data set is classed as in vivo. The settings on record: oral 1-2 mg/kg; six-eight hours after administration. The procedure: Compounds of the Formula I were added orally to dogs infected by ticks (Ixodes ricinus) for three days. Thus N-aminoiminomethyl-S-allyl-isothiuronium hydrochloride was administered in an oral dose of 1-2 mg/kg and the killing rate of ticks was registered.

The test system of the next data set is heart muscle. The data set is described as follows: Cardioprotective effect in isoprenaline necrosis. Type of data set: in vivo, male CFY rats. The settings on record: 1-5 mg/kg i.p. or 10-50 mg/kg p.o.; isoproterenol 5 mg/kg i.p.; two weeks. The procedure: 5 mg/kg of isoproterenol are i.p. administered to male CFY rats (weight 250-300 g). In each group 10 animals were used. One part of the animals served as control and the other were treated with a 1-5 mg/kg i.p. or 10-50 mg/kg p.o. dose of compound No. 14. After two weeks the hearts were subjected to hystological evaluation. The ratio of necrotized and intact area of heart muscle were determined.

A further data set has as its system ascites lymphoma cells. The data set is described as follows: Preliminary rapid test: antitumor effect. Type of data set: in vivo, CFLP male mice. The settings on record: oral, one-tenth of LD50; 24 hours.
The conditions of data set [7]: in vivo, 24 h.

Where two headings read alike, the source gives them in different places.

`C=CCSC(=N)NC(=N)N` [Example 11, N-Aminoiminomethyl-S-Allyl-Isothiuronium Bromide] had a Toxic effect in [1] of 0. In [2], the “Activity on P-388 cells on increasing the concentration” value was “the activity does not become stronger”. Further, the LD50 at 24 h in the data set “in vivo” (ip) was 320 ± 30 mg/kg. In addition, the LD50 at 24 h in “in vivo” (po) was found to be 2380 ± 320 mg/kg. In the data set on NK-ly-ascites lymphoma, the “Activity against NK-ly-ascites tumor” value was “active agains Nk-ly-ascites tumor in a concentration below one-tenth of the LD50 value”; the “Survival rate and lifetime” value is “increase survival rate and lifetime in a dose-dependant manner”; the Cytotoxical dose range fell in the range of 250 to 500 mg/kg. In the data set on human lymphocytes, the Immunostimulant effect entry is listed as “outstanding immunostimulant effect”; the “Increase of normal and strongly decreased NK and K cell activity” value is “significant increase of normal and strongly decreased NK and K cell activity, even above the normal level”. In addition, in [3], the “Effect on migration at a higher dose” value is “less expressed”, the “Direct (random) migration of polymorphonuclear cells” value is on record as “increased” and the “Optimal dose for increase of migration” value was 1.0 µg/mL. The “Clinical outcome in human tumors” value in data set [4] was “significant improvement or reconvalescence”. Also, the Antitumor effect result in the data set with tumor cells is listed as “outstanding antitumor effect”. For the same compound, in the data set on NK-yl ascites tumor, the “Antitumor effect of combination vs cytostatic agent alone” value is “the antitumor effect was strengthened” and the “Immunodepression of combination vs cytostatic agent alone” value was “immunodepression decreased”. The “Hemodinamical parameters and respiration function” value in [5] (10 mg/kg i.v., opened and closed chest) was “does not considerably effect the hemodinamical parameters and respiration function”. The “Left ventricular pressure and frequency effects” value in [5] (50 mg/kg i.v.) is “significant and long-lasting”. Also, the Hemodynamical changes result in data set [5] (100 mg/kg i.v.) is on record as “strong hemodynamical changes were observed”. The “Left ventricular pressure and frequency” value in data set [5] (above 10 mg/kg i.v.) is reported as “decreased”. In addition, the Lethality entry in data set [5] (in vivo) is on record as “the cats did not perish”. Moreover, the Immunostimulant effect result in data set [6] was “strong (The effect is strong if the increase of the cell number and activity of the immune system is more than 20% higher than the control)”.

As to `C=CCSC(=N)NC(=N)N` [Example 12, N-Aminoiminomethyl-S-Allyl-Isothiuronium Chloride], the “Killing rate of ticks” value with ticks (Ixodes ricinus) is listed as “all ticks were killed”. The “Necrosis of heart muscle” value in the data set on heart muscle is on record as “significant decrease of necrosis”.

In data set [1], `N=C(N)NC(=N)SCCO` [Example 16, N-Aminoiminomethyl-S-(2-Hydroxyethyl)-Isothiuronium Chloride] returned a Toxic effect of 0. The compound further registered a 50% lethal dose (LD50) at 24 h in the data set “in vivo” (ip) of 1680 ± 210 mg/kg. In the data set “in vivo” (po), the LD50 at 24 h came to 3280 ± 460 mg/kg. Besides, in the data set on human lymphocytes, the Immunostimulant effect entry is recorded as “outstanding immunostimulant effect”; the “Increase of normal and strongly decreased NK and K cell activity” value was “significant increase of normal and strongly decreased NK and K cell activity, even above the normal level”. Moreover, in the data set with NK-yl ascites tumor, the “Antitumor effect of combination vs cytostatic agent alone” value is reported as “the antitumor effect was strengthened” and the “Immunodepression of combination vs cytostatic agent alone” value is listed as “immunodepression decreased”. In addition, the Immunostimulant effect result in data set [6] is “strong (The effect is strong if the increase of the cell number and activity of the immune system is more than 20% higher than the control)”.

`N=C(N)NC(=N)SCc1ccccc1` [Example 18, N-Aminoiminomethyl-S-Benzyl-Thiuronium Chloride]: the Toxic effect in [1] is 0. Also, the Antitumor effect result in the data set with ascites lymphoma cells is given as “increase”. Besides, the median lethal dose (LD50) at 24 h in the data set “in vivo” (po) stood at 2420 ± 260 mg/kg. The Immunostimulant effect in data set [6] is on record as 0.

Consider `C=CCSC(=NC1CCCCC1)NC(=N)N` [Example 22, N-Aminoiminomethyl-N'-Cyclohexyl-S-Allyl-Isothiuronium Chloride], for which the Toxic effect in data set [1] worked out at 0. In addition, the LD50 at 24 h was found to be 65 ± 5.1 mg/kg in “in vivo” (ip) and 450 ± 51 mg/kg in “in vivo” (po). The “Activity against NK-ly-ascites tumor” value with NK-ly-ascites lymphoma is on record as “active agains Nk-ly-ascites tumor in a concentration below one-tenth of the LD50 value”. Also, in the data set with NK-ly-ascites lymphoma, the “Survival rate and lifetime” value is “increase survival rate and lifetime in a dose-dependant manner”. Further, in the data set on NK-ly-ascites lymphoma, the Cytotoxical dose range is 40 to 160 mg/kg. Besides, in data set [6], the Immunostimulant effect result is “weak”. The LD50 in [7] (ip) worked out at 40 ± 6 mg/kg; in data set [7] (po) it was 400 ± 38 mg/kg.

With “N-Aminoiminomethyl-S-(1-Chloro-2-Hydroxy-Propyl)-Isothiuronium Bromide [Example 14]”, in the data set with NK-ly-ascites lymphoma, the “Activity against NK-ly-ascites tumor” value was “active agains Nk-ly-ascites tumor in a concentration below one-tenth of the LD50 value”; the “Survival rate and lifetime” value is “increase survival rate and lifetime in a dose-dependant manner”. Further, in data set [3], the “Effect on migration at a higher dose” value is recorded as “less expressed”, the “Direct (random) migration of polymorphonuclear cells” value was “increased” and the “Optimal dose for increase of migration” value turned out to be 1.0 µg/mL. Further, the Antitumor effect entry in the data set with tumor cells is “outstanding antitumor effect”. In the data set with NK-yl ascites tumor, the “Antitumor effect of combination vs cytostatic agent alone” value was “the antitumor effect was strengthened” and the “Immunodepression of combination vs cytostatic agent alone” value is reported as “immunodepression decreased”. Further, the Immunostimulant effect result in data set [6] is on record as “weak”. Moreover, the “LD50” value in data set [7] amounted to 2380 mg/kg. Also, the LD50 in data set [7] (po) is 1240 ± 160 mg/kg.

Broadly, the LD50 is the dose expected to kill half of the subjects tested.

The record behind these values is US4710578A, “Isothiuronium salts” (Peremartoni Vegyipari Vallalat, priority 1984, dated 1987).
